Measured values: PubChem BioAssay (NCI)
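Exposure lasted 48 hours, with cells grown in 96-well plates and compounds tested at five concentrations. TGI: total growth inhibition.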

Columns and labels:
Test in all cases: NCI anticancer screen, dose series, 48 h
CAKI-1 renal = test system: CAKI-1 renal
NCI-H23 lung = test system: NCI-H23 lung
DMS 114 small cell lung = test system: DMS 114 small cell lung
SNB-19 CNS = test system: SNB-19 CNS
A549 NSCLC = test system: A549 NSCLC
OVCAR-4 ovarian = test system: OVCAR-4 ovarian
DMS 273 small cell lung = test system: DMS 273 small cell lung
RPMI-8226 leukemia = test system: RPMI-8226 leukemia
SK-OV-3 ovarian = test system: SK-OV-3 ovarian
M14 melanoma = test system: M14 melanoma
UO-31 renal = test system: UO-31 renal
A498 renal = test system: A498 renal
IGROV1 ovarian = test system: IGROV1 ovarian
NCI-H460 lung = test system: NCI-H460 lung
DLD-1 colon = test system: DLD-1 colon
XF 498 CNS = test system: XF 498 CNS
CCRF-CEM leukemia = test system: CCRF-CEM leukemia
EKVX NSCLC = test system: EKVX NSCLC
SK-MEL-28 melanoma = test system: SK-MEL-28 melanoma
HCT-15 colon = test system: HCT-15 colon
SNB-75 CNS = test system: SNB-75 CNS
M19-MEL melanoma = test system: M19-MEL melanoma
ACHN renal = test system: ACHN renal
SK-MEL-2 melanoma = test system: SK-MEL-2 melanoma
MALME-3M melanoma = test system: MALME-3M melanoma
HCT-116 colon = test system: HCT-116 colon
OVCAR-8 ovarian = test system: OVCAR-8 ovarian
SK-MEL-5 melanoma = test system: SK-MEL-5 melanoma
UACC-62 melanoma = test system: UACC-62 melanoma
UACC-257 melanoma = test system: UACC-257 melanoma
786-0 renal = test system: 786-0 renal
K-562 leukemia = test system: K-562 leukemia
KM12 colon = test system: KM12 colon
HOP-18 NSCLC = test system: HOP-18 NSCLC
COLO 205 colon = test system: COLO 205 colon
TK-10 renal = test system: TK-10 renal
MOLT-4 leukemia = test system: MOLT-4 leukemia
HCC-2998 colon = test system: HCC-2998 colon
SF-539 CNS = test system: SF-539 CNS
HOP-92 NSCLC = test system: HOP-92 NSCLC
SN12C renal = test system: SN12C renal
SW-620 colon = test system: SW-620 colon
SF-268 CNS = test system: SF-268 CNS
NCI-H522 lung = test system: NCI-H522 lung
SR leukemia = test system: SR leukemia
HL-60(TB) leukemia = test system: HL-60(TB) leukemia
SF-295 CNS = test system: SF-295 CNS
KM20L2 colon = test system: KM20L2 colon
OVCAR-5 ovarian = test system: OVCAR-5 ovarian
LXFL 529 NSCLC = test system: LXFL 529 NSCLC
OVCAR-3 ovarian = test system: OVCAR-3 ovarian
HT29 colon = test system: HT29 colon
HOP-62 NSCLC = test system: HOP-62 NSCLC
LOX IMVI melanoma = test system: LOX IMVI melanoma
RXF 393 renal = test system: RXF 393 renal
U251 CNS = test system: U251 CNS
SNB-78 CNS = test system: SNB-78 CNS
RXF-631 renal = test system: RXF-631 renal
NCI-H226 lung = test system: NCI-H226 lung

Measured: TGI

CCc1cccc(C)c1NC(=O)CCc1nnc(SC)o1
> 100 µM: CAKI-1 renal | NCI-H23 lung | DMS 114 small cell lung | SNB-19 CNS | A549 NSCLC | OVCAR-4 ovarian | DMS 273 small cell lung | RPMI-8226 leukemia | SK-OV-3 ovarian | M14 melanoma | UO-31 renal | A498 renal | IGROV1 ovarian | NCI-H460 lung | DLD-1 colon | XF 498 CNS | CCRF-CEM leukemia | EKVX NSCLC | SK-MEL-28 melanoma | HCT-15 colon | SNB-75 CNS | M19-MEL melanoma | ACHN renal | SK-MEL-2 melanoma | MALME-3M melanoma | HCT-116 colon | OVCAR-8 ovarian | SK-MEL-5 melanoma | UACC-62 melanoma | UACC-257 melanoma | 786-0 renal | K-562 leukemia | KM12 colon | HOP-18 NSCLC | COLO 205 colon | TK-10 renal | MOLT-4 leukemia | HCC-2998 colon | SF-539 CNS | HOP-92 NSCLC | SN12C renal | SW-620 colon | SF-268 CNS | NCI-H522 lung | SR leukemia | HL-60(TB) leukemia | SF-295 CNS | KM20L2 colon | OVCAR-5 ovarian | LXFL 529 NSCLC | OVCAR-3 ovarian | HT29 colon | HOP-62 NSCLC | LOX IMVI melanoma | RXF 393 renal | U251 CNS | SNB-78 CNS

S=c1nc(COc2ccc(Cl)cc2)[nH][nH]1
> 100 µM: CAKI-1 renal | NCI-H23 lung | DMS 114 small cell lung | SNB-19 CNS | A549 NSCLC | OVCAR-4 ovarian | DMS 273 small cell lung | RPMI-8226 leukemia | SK-OV-3 ovarian | M14 melanoma | UO-31 renal | A498 renal | IGROV1 ovarian | NCI-H460 lung | DLD-1 colon | RXF-631 renal | CCRF-CEM leukemia | SK-MEL-28 melanoma | HCT-15 colon | SNB-75 CNS | M19-MEL melanoma | ACHN renal | SK-MEL-2 melanoma | MALME-3M melanoma | HCT-116 colon | OVCAR-8 ovarian | SK-MEL-5 melanoma | UACC-62 melanoma | UACC-257 melanoma | NCI-H226 lung | 786-0 renal | K-562 leukemia | KM12 colon | COLO 205 colon | TK-10 renal | MOLT-4 leukemia | HCC-2998 colon | SF-539 CNS | HOP-92 NSCLC | SN12C renal | SW-620 colon | SF-268 CNS | NCI-H522 lung | HL-60(TB) leukemia | SF-295 CNS | KM20L2 colon | OVCAR-5 ovarian | LXFL 529 NSCLC | OVCAR-3 ovarian | HT29 colon | HOP-62 NSCLC | LOX IMVI melanoma | RXF 393 renal | U251 CNS | SNB-78 CNS

CC(=O)OC(OC(C)=O)c1ncccc1C(=O)OC(C)C
28.9 µM: HL-60(TB) leukemia
> 100 µM: CAKI-1 renal | NCI-H23 lung | DMS 114 small cell lung | SNB-19 CNS | A549 NSCLC | OVCAR-4 ovarian | DMS 273 small cell lung | SK-OV-3 ovarian | M14 melanoma | UO-31 renal | A498 renal | IGROV1 ovarian | NCI-H460 lung | DLD-1 colon | XF 498 CNS | EKVX NSCLC | SK-MEL-28 melanoma | HCT-15 colon | SNB-75 CNS | M19-MEL melanoma | ACHN renal | SK-MEL-2 melanoma | MALME-3M melanoma | HCT-116 colon | OVCAR-8 ovarian | SK-MEL-5 melanoma | UACC-62 melanoma | UACC-257 melanoma | NCI-H226 lung | 786-0 renal | K-562 leukemia | KM12 colon | HOP-18 NSCLC | COLO 205 colon | TK-10 renal | MOLT-4 leukemia | HCC-2998 colon | SF-539 CNS | HOP-92 NSCLC | SN12C renal | SW-620 colon | SF-268 CNS | NCI-H522 lung | SR leukemia | SF-295 CNS | KM20L2 colon | OVCAR-5 ovarian | LXFL 529 NSCLC | OVCAR-3 ovarian | HT29 colon | HOP-62 NSCLC | LOX IMVI melanoma | RXF 393 renal | U251 CNS | SNB-78 CNS
49.1 µM: CCRF-CEM leukemia

Cc1cc(C)nc(NS(=O)(=O)c2ccc(Nc3c4ccccc4nc4c(C(=O)N5CCN(CCO)CC5)ccc(Cl)c34)cc2)n1
> 100 µM: CAKI-1 renal | NCI-H23 lung | DMS 114 small cell lung | SNB-19 CNS | A549 NSCLC | OVCAR-4 ovarian | DMS 273 small cell lung | RPMI-8226 leukemia | SK-OV-3 ovarian | M14 melanoma | UO-31 renal | A498 renal | IGROV1 ovarian | NCI-H460 lung | RXF-631 renal | CCRF-CEM leukemia | SK-MEL-28 melanoma | HCT-15 colon | SNB-75 CNS | M19-MEL melanoma | SK-MEL-2 melanoma | MALME-3M melanoma | HCT-116 colon | OVCAR-8 ovarian | SK-MEL-5 melanoma | UACC-62 melanoma | UACC-257 melanoma | NCI-H226 lung | 786-0 renal | K-562 leukemia | KM12 colon | COLO 205 colon | TK-10 renal | MOLT-4 leukemia | HCC-2998 colon | SF-539 CNS | HOP-92 NSCLC | SN12C renal | SF-268 CNS | HL-60(TB) leukemia | SF-295 CNS | KM20L2 colon | OVCAR-5 ovarian | OVCAR-3 ovarian | HT29 colon | HOP-62 NSCLC | RXF 393 renal | U251 CNS | SNB-78 CNS

Cc1c(Cl)ccc2c1NC(=O)C2(O)CC(=O)c1cccc2ccccc12 (stereo not given)
> 100 µM: CAKI-1 renal | NCI-H23 lung | SNB-19 CNS | A549 NSCLC | DMS 273 small cell lung | RPMI-8226 leukemia | SK-OV-3 ovarian | M14 melanoma | UO-31 renal | A498 renal | IGROV1 ovarian | NCI-H460 lung | DLD-1 colon | XF 498 CNS | CCRF-CEM leukemia | EKVX NSCLC | SK-MEL-28 melanoma | HCT-15 colon | SNB-75 CNS | ACHN renal | SK-MEL-2 melanoma | MALME-3M melanoma | HCT-116 colon | OVCAR-8 ovarian | SK-MEL-5 melanoma | UACC-62 melanoma | UACC-257 melanoma | NCI-H226 lung | 786-0 renal | K-562 leukemia | KM12 colon | HOP-18 NSCLC | COLO 205 colon | TK-10 renal | MOLT-4 leukemia | HCC-2998 colon | SF-539 CNS | SN12C renal | SW-620 colon | SF-268 CNS | NCI-H522 lung | SF-295 CNS | KM20L2 colon | OVCAR-5 ovarian | LXFL 529 NSCLC | OVCAR-3 ovarian | HT29 colon | HOP-62 NSCLC | LOX IMVI melanoma | RXF 393 renal | U251 CNS | SNB-78 CNS
63.1 µM: SR leukemia
42.3 µM: HL-60(TB) leukemia
37.6 µM: M19-MEL melanoma
71.3 µM: OVCAR-4 ovarian
55.8 µM: DMS 114 small cell lung
